Laboratory results: patent US4223024A, “4"-O-Alkylgentamicins and sagamicins” (Abbott Laboratories, priority 1979, dated 1980)
Values after ≈ are worked out from the molar mass of the structure shown.

What was measured:
[1] = test system: Escherichia coli R3; experiment: two fold dilution test (MIC), Escherichia coli R3; type: cell-based; conditions: Streptomycin Assay Agar with yeast extract, pH 7.9, overnight
Procedure: (§1) The in vitro antibiotic activity is determined by a two fold dilution test using Streptomycin Assay Agar with yeast extract (at pH 7.9). The inoculum of approximately 1×10^5 of the indicated test organism is delivered by a multiple inoculator. The test is incubated over night.
(§2) The minimum inhibitory concentrations for the compounds of Example 4, Example 8, compound 1 and Example 12 compound, are set forth in Table II. The minimum inhibitory concentrations (MIC) are expressed in micrograms per ml.

[2] = test system: Klebsiella pneumonia ATCC 10031; experiment: two fold dilution test (MIC), Klebsiella pneumonia ATCC 10031; type: cell-based; conditions: pH 7.9, overnight; for MIC (minimum inhibitory concentration): Streptomycin Assay Agar with yeast extract
Procedure: as §1, §2

[3] = test system: Proteus vulgaris ATCC 6897; experiment: two fold dilution test (MIC), Proteus vulgaris ATCC 6897; type: cell-based; conditions: pH 7.9, overnight; for MIC (minimum inhibitory concentration): Streptomycin Assay Agar with yeast extract
Procedure: as §1, §2

[4] = test system: Shigella sonnei ATCC 9290; experiment: two fold dilution test (MIC), Shigella sonnei ATCC 9290; type: cell-based; conditions: pH 7.9, overnight; for MIC (minimum inhibitory concentration): Streptomycin Assay Agar with yeast extract
Procedure: as §1, §2

[5] = test system: Pseudomonas aeruginosa BMH #1; experiment: two fold dilution test (MIC), Pseudomonas aeruginosa BMH #1; type: cell-based; conditions: Streptomycin Assay Agar with yeast extract, pH 7.9, overnight
Procedure: as §1, §2

[6] = test system: Streptococcus faecalis ATCC 10541; experiment: two fold dilution test (MIC), Streptococcus faecalis ATCC 10541; type: cell-based; conditions: pH 7.9, overnight; for MIC (minimum inhibitory concentration): Streptomycin Assay Agar with yeast extract
Procedure: as §1, §2

[7] = test system: Staphylococcus aureus ATCC 6538P; experiment: two fold dilution test (MIC), Staphylococcus aureus ATCC 6538P; type: cell-based; conditions: Streptomycin Assay Agar with yeast extract, pH 7.9, overnight
Procedure: as §1, §2

[8] = test system: Salmonella typhi ATCC 9992; experiment: two fold dilution test (MIC), Salmonella typhi ATCC 9992; type: cell-based; conditions: for MIC (minimum inhibitory concentration): Salmonella typhi ATCC 9992, Streptomycin Assay Agar with yeast extract, pH 7.9, overnight
Procedure: as §1, §2

[9] = test system: Escherichia coli ATCC 26; experiment: two fold dilution test (MIC), Escherichia coli ATCC 26; type: cell-based; conditions: pH 7.9, overnight; for MIC (minimum inhibitory concentration): Streptomycin Assay Agar with yeast extract
Procedure: as §1, §2

[10] = test system: Bacillis subtilis U. of I1. 10707; experiment: two fold dilution test (MIC), Bacillis subtilis U. of I1. 10707; type: cell-based; conditions: Streptomycin Assay Agar with yeast extract, pH 7.9, overnight
Procedure: as §1, §2

[11] = compared with gentamicin; background statement; cited from earlier work
[12] = test system: aerobic gram-negative bacteria; conditions: background statement; cited from earlier work
[13] = read-out: MIC (minimum inhibitory concentration)

| Compound | MIC (minimum inhibitory concentration) [1] [µg/mL] | MIC (minimum inhibitory concentration) [2] [µg/mL] | MIC (minimum inhibitory concentration) [3] [µg/mL] | MIC (minimum inhibitory concentration) [4] [µg/mL] | MIC (minimum inhibitory concentration) [5] [µg/mL] | MIC (minimum inhibitory concentration) [6] [µg/mL] | MIC (minimum inhibitory concentration) [7] [µg/mL] | MIC (minimum inhibitory concentration) [8] [µg/mL] | MIC (minimum inhibitory concentration) [9] [µg/mL] | MIC (minimum inhibitory concentration) [10] [µg/mL] | further results |
| --- | --- | --- | --- | --- | --- | --- | --- | --- | --- | --- | --- |
| CNC1C(O)C(OC2C(N)CC(N)C(OC3OC(CN)CCC3N)C2O)OCC1(C)OC (centres unmarked) [Ex 4, 4"-O-Methylgentamicin C1a] | 10.000 (≈ 21.6 µM) | 0.005 (≈ 0.0108 µM) | 0.08 (≈ 0.173 µM) | 0.04 (≈ 0.0863 µM) | 0.63 (≈ 1.36 µM) | 10.000 (≈ 21.6 µM) | 0.005 (≈ 0.0108 µM) | 0.01 (≈ 0.0216 µM) | 0.005 (≈ 0.0108 µM) | 0.005 (≈ 0.0108 µM) | – |
| CNCC1CCC(N)C(OC2C(N)CC(N)C(OC3OCC(C)(OC)C(NC)C3O)C2O)O1 (centres unmarked) [Ex 8(1), 4"-O-Methylsagamicin] | – | – | – | – | – | – | – | – | – | – | MIC [1, 13]: 3.1 µg/mL (≈ 6.49 µM); MIC ([2]; Klebsiella pneumoniae, ATCC10031, Streptomycin Assay Agar with yeast extract, read-out: MIC (minimum inhibitory concentration)): 0.05 µg/mL (≈ 0.105 µM); MIC ([3]; ATCC6897, Streptomycin Assay Agar with yeast extract, read-out: MIC (minimum inhibitory concentration)): 0.05 µg/mL (≈ 0.105 µM); MIC ([4]; ATCC9290, Streptomycin Assay Agar with yeast extract, read-out: MIC (minimum inhibitory concentration)): 0.05 µg/mL (≈ 0.105 µM); MIC [5, 13]: 0.4 µg/mL (≈ 0.838 µM); MIC ([6]; Enterococcus faecalis, ATCC10541, Streptomycin Assay Agar with yeast extract, read-out: MIC (minimum inhibitory concentration)): 12.5 µg/mL (≈ 26.2 µM); MIC ([7]; ATCC6538P, read-out: MIC (minimum inhibitory concentration)): 0.05 µg/mL (≈ 0.105 µM); MIC ([8]; Salmonella enterica, pH 7.9, read-out: MIC (minimum inhibitory concentration)): 0.05 µg/mL (≈ 0.105 µM); MIC ([9]; ATCC26, Streptomycin Assay Agar with yeast extract, read-out: MIC (minimum inhibitory concentration)): 0.05 µg/mL (≈ 0.105 µM); MIC [10, 13]: 0.005 µg/mL (≈ 0.0105 µM) |
| CNC1C(O)C(OC2C(N)CC(N)C(OC3OC(CN)CCC3N)C2O)OCC1(C)OC (stereo not drawn) [Ex 12, 5-Epi-4"-O-methylgentamicin C1a] | 2.5 (≈ 5.39 µM) | 0.005 (≈ 0.0108 µM) | 0.08 (≈ 0.173 µM) | 0.08 (≈ 0.173 µM) | 0.63 (≈ 1.36 µM) | 25.00 (≈ 53.9 µM) | 0.005 (≈ 0.0108 µM) | 0.01 (≈ 0.0216 µM) | 0.02 (≈ 0.0431 µM) | 0.005 (≈ 0.0108 µM) | – |
| CNCC1CCC(N)C(OC2C(N)CC(N)C(OC3OCC(C)(O)C(NC)C3O)C2O)O1 (centres unmarked) [Sagamicin, sagamicin] | – | – | – | – | – | – | – | – | – | – | ototoxicity [11]: lower ototoxicity than does gentamicin |
| gentamicin | – | – | – | – | – | – | – | – | – | – | anti-bacterial spectrum / effectiveness [12]: effective against most aerobic gram-negative bacteria |
